# Assay results reported in the supplement of paper PMC8882468.
# ± gives the standard deviation of the averaged measurements.
# Test system: HCI-005.E2 (organoid from a breast cancer xenograft with a HER2-positive history)
# Assay: CTG-3D luminescence at 96 h relative to day-0 seeding control (ratio to day 0); higher = more growth / less cytotoxicity; PDxO 3D drug screen, 96 h, CTG-3D normalised to day-0 seeding control.
# Settings: 12.5 pM
row,Structure (SMILES),CTG-3D luminescence at 96 h
1,COc1cccc2c1C(=O)c1c(O)c3c(c(O)c1C2=O)C[C@@](O)(C(=O)CO)C[C@@H]3O[C@H]1C[C@H](N)[C@H](O)[C@H](C)O1 [doxorubicin],1.5 ± 0.48
2,O=C(O)C1(C(=O)O)CCC1.[NH2-].[NH2-].[Pt+2] [carboplatin],1.69 ± 0.46
3,NC(=O)Nc1cc(-c2cccc(F)c2)sc1C(=O)N[C@H]1CCCNC1 [AZD7762],1.82 ± 0.58
4,Nc1ccn([C@@H]2O[C@H](CO)[C@@H](O)C2(F)F)c(=O)n1 [gemcitabine],1.6 ± 0.29
5,CC1(C)CCC(c2ccc(Cl)cc2)=C(CN2CCN(c3ccc(C(=O)NS(=O)(=O)c4ccc(N[C@H](CCN5CCOCC5)CSc5ccccc5)c(S(=O)(=O)C(F)(F)F)c4)cc3)CC2)C1 [navitoclax],1.5 ± 0.29
6,CN(Cc1cnc2nc(N)nc(N)c2n1)c1ccc(C(=O)N[C@@H](CCC(=O)O)C(=O)O)cc1 [methotrexate],2.09 ± 0.69
7,C=CCn1c(=O)c2cnc(Nc3ccc(N4CCN(C)CC4)cc3)nc2n1-c1cccc(C(C)(C)O)n1 [adavosertib],1.7 ± 0.51
8,CC(C)(C(=O)NCC(F)(F)C(F)(F)F)C(=O)N[C@@H]1C(=O)Nc2ccccc2-c2ccccc21,1.47 ± 0.22
9,C[C@@H]1COCCN1c1cc(C2([S@](C)(=N)=O)CC2)nc(-c2cc[nH]c3nccc2-3)n1 [ceralasertib],1.83 ± 0.65
10,CCN1CCN(Cc2ccc(Nc3ncc(F)c(-c4cc(F)c5nc(C)n(C(C)C)c5c4)n3)nc2)CC1 [abemaciclib],1.99 ± 0.22

# Same assay, conditions: 0.00025 µM
row,Structure (SMILES),CTG-3D luminescence at 96 h
1,COc1cccc2c1C(=O)c1c(O)c3c(c(O)c1C2=O)C[C@@](O)(C(=O)CO)C[C@@H]3O[C@H]1C[C@H](N)[C@H](O)[C@H](C)O1 [doxorubicin],1.93 ± 0.33
2,O=C(O)C1(C(=O)O)CCC1.[NH2-].[NH2-].[Pt+2] [carboplatin],2.11 ± 0.47
3,NC(=O)Nc1cc(-c2cccc(F)c2)sc1C(=O)N[C@H]1CCCNC1 [AZD7762],1.75 ± 0.35
4,Nc1ccn([C@@H]2O[C@H](CO)[C@@H](O)C2(F)F)c(=O)n1 [gemcitabine],1.96 ± 0.86
5,CC1(C)CCC(c2ccc(Cl)cc2)=C(CN2CCN(c3ccc(C(=O)NS(=O)(=O)c4ccc(N[C@H](CCN5CCOCC5)CSc5ccccc5)c(S(=O)(=O)C(F)(F)F)c4)cc3)CC2)C1 [navitoclax],1.46 ± 0.075
6,CN(Cc1cnc2nc(N)nc(N)c2n1)c1ccc(C(=O)N[C@@H](CCC(=O)O)C(=O)O)cc1 [methotrexate],1.81 ± 0.6
7,C=CCn1c(=O)c2cnc(Nc3ccc(N4CCN(C)CC4)cc3)nc2n1-c1cccc(C(C)(C)O)n1 [adavosertib],1.72 ± 0.46
8,CC(C)(C(=O)NCC(F)(F)C(F)(F)F)C(=O)N[C@@H]1C(=O)Nc2ccccc2-c2ccccc21,1.48 ± 0.29
9,C[C@@H]1COCCN1c1cc(C2([S@](C)(=N)=O)CC2)nc(-c2cc[nH]c3nccc2-3)n1 [ceralasertib],1.7 ± 0.29
10,CCN1CCN(Cc2ccc(Nc3ncc(F)c(-c4cc(F)c5nc(C)n(C(C)C)c5c4)n3)nc2)CC1 [abemaciclib],2.57 ± 0.33

# Same assay, conditions: 0.005 µM
row,Structure (SMILES),CTG-3D luminescence at 96 h
1,COc1cccc2c1C(=O)c1c(O)c3c(c(O)c1C2=O)C[C@@](O)(C(=O)CO)C[C@@H]3O[C@H]1C[C@H](N)[C@H](O)[C@H](C)O1 [doxorubicin],1.21 ± 0.33
2,O=C(O)C1(C(=O)O)CCC1.[NH2-].[NH2-].[Pt+2] [carboplatin],1.73 ± 0.066
3,NC(=O)Nc1cc(-c2cccc(F)c2)sc1C(=O)N[C@H]1CCCNC1 [AZD7762],1.8 ± 0.53
4,Nc1ccn([C@@H]2O[C@H](CO)[C@@H](O)C2(F)F)c(=O)n1 [gemcitabine],1.71 ± 0.37
5,CC1(C)CCC(c2ccc(Cl)cc2)=C(CN2CCN(c3ccc(C(=O)NS(=O)(=O)c4ccc(N[C@H](CCN5CCOCC5)CSc5ccccc5)c(S(=O)(=O)C(F)(F)F)c4)cc3)CC2)C1 [navitoclax],1.66 ± 0.36
6,CN(Cc1cnc2nc(N)nc(N)c2n1)c1ccc(C(=O)N[C@@H](CCC(=O)O)C(=O)O)cc1 [methotrexate],1.86 ± 0.98
7,C=CCn1c(=O)c2cnc(Nc3ccc(N4CCN(C)CC4)cc3)nc2n1-c1cccc(C(C)(C)O)n1 [adavosertib],2.03 ± 0.8
8,CC(C)(C(=O)NCC(F)(F)C(F)(F)F)C(=O)N[C@@H]1C(=O)Nc2ccccc2-c2ccccc21,1.45 ± 0.36
9,C[C@@H]1COCCN1c1cc(C2([S@](C)(=N)=O)CC2)nc(-c2cc[nH]c3nccc2-3)n1 [ceralasertib],1.86 ± 0.41
10,CCN1CCN(Cc2ccc(Nc3ncc(F)c(-c4cc(F)c5nc(C)n(C(C)C)c5c4)n3)nc2)CC1 [abemaciclib],2.09 ± 0.054

# Same assay, conditions: 0.1 µM
row,Structure (SMILES),CTG-3D luminescence at 96 h
1,COc1cccc2c1C(=O)c1c(O)c3c(c(O)c1C2=O)C[C@@](O)(C(=O)CO)C[C@@H]3O[C@H]1C[C@H](N)[C@H](O)[C@H](C)O1 [doxorubicin],1.07 ± 0.17
2,O=C(O)C1(C(=O)O)CCC1.[NH2-].[NH2-].[Pt+2] [carboplatin],1.87 ± 0.55
3,NC(=O)Nc1cc(-c2cccc(F)c2)sc1C(=O)N[C@H]1CCCNC1 [AZD7762],1.6 ± 0.47
4,Nc1ccn([C@@H]2O[C@H](CO)[C@@H](O)C2(F)F)c(=O)n1 [gemcitabine],0.511 ± 0.32
5,CC1(C)CCC(c2ccc(Cl)cc2)=C(CN2CCN(c3ccc(C(=O)NS(=O)(=O)c4ccc(N[C@H](CCN5CCOCC5)CSc5ccccc5)c(S(=O)(=O)C(F)(F)F)c4)cc3)CC2)C1 [navitoclax],1.7 ± 0.3
6,CN(Cc1cnc2nc(N)nc(N)c2n1)c1ccc(C(=O)N[C@@H](CCC(=O)O)C(=O)O)cc1 [methotrexate],1.02 ± 0.19
7,C=CCn1c(=O)c2cnc(Nc3ccc(N4CCN(C)CC4)cc3)nc2n1-c1cccc(C(C)(C)O)n1 [adavosertib],2.09 ± 0.47
8,CC(C)(C(=O)NCC(F)(F)C(F)(F)F)C(=O)N[C@@H]1C(=O)Nc2ccccc2-c2ccccc21,1.8 ± 0.5
9,C[C@@H]1COCCN1c1cc(C2([S@](C)(=N)=O)CC2)nc(-c2cc[nH]c3nccc2-3)n1 [ceralasertib],1.9 ± 0.35
10,CCN1CCN(Cc2ccc(Nc3ncc(F)c(-c4cc(F)c5nc(C)n(C(C)C)c5c4)n3)nc2)CC1 [abemaciclib],1.96 ± 0.25

# Same assay, conditions: 1 µM
row,Structure (SMILES),CTG-3D luminescence at 96 h
1,COc1cccc2c1C(=O)c1c(O)c3c(c(O)c1C2=O)C[C@@](O)(C(=O)CO)C[C@@H]3O[C@H]1C[C@H](N)[C@H](O)[C@H](C)O1 [doxorubicin],0.557 ± 0.044
2,O=C(O)C1(C(=O)O)CCC1.[NH2-].[NH2-].[Pt+2] [carboplatin],1.51 ± 0.36
3,NC(=O)Nc1cc(-c2cccc(F)c2)sc1C(=O)N[C@H]1CCCNC1 [AZD7762],0.674 ± 0.13
4,Nc1ccn([C@@H]2O[C@H](CO)[C@@H](O)C2(F)F)c(=O)n1 [gemcitabine],0.224 ± 0.069
5,CC1(C)CCC(c2ccc(Cl)cc2)=C(CN2CCN(c3ccc(C(=O)NS(=O)(=O)c4ccc(N[C@H](CCN5CCOCC5)CSc5ccccc5)c(S(=O)(=O)C(F)(F)F)c4)cc3)CC2)C1 [navitoclax],1.24 ± 0.27
6,CN(Cc1cnc2nc(N)nc(N)c2n1)c1ccc(C(=O)N[C@@H](CCC(=O)O)C(=O)O)cc1 [methotrexate],0.572 ± 0.073
7,C=CCn1c(=O)c2cnc(Nc3ccc(N4CCN(C)CC4)cc3)nc2n1-c1cccc(C(C)(C)O)n1 [adavosertib],1.11 ± 0.33
8,CC(C)(C(=O)NCC(F)(F)C(F)(F)F)C(=O)N[C@@H]1C(=O)Nc2ccccc2-c2ccccc21,1.18 ± 0.59
9,C[C@@H]1COCCN1c1cc(C2([S@](C)(=N)=O)CC2)nc(-c2cc[nH]c3nccc2-3)n1 [ceralasertib],1.16 ± 0.36
10,CCN1CCN(Cc2ccc(Nc3ncc(F)c(-c4cc(F)c5nc(C)n(C(C)C)c5c4)n3)nc2)CC1 [abemaciclib],1.61 ± 0.21

# Same assay, conditions: 10 µM
row,Structure (SMILES),CTG-3D luminescence at 96 h
1,COc1cccc2c1C(=O)c1c(O)c3c(c(O)c1C2=O)C[C@@](O)(C(=O)CO)C[C@@H]3O[C@H]1C[C@H](N)[C@H](O)[C@H](C)O1 [doxorubicin],-0.00289 ± 0.0012
2,O=C(O)C1(C(=O)O)CCC1.[NH2-].[NH2-].[Pt+2] [carboplatin],1.24 ± 0.26
3,NC(=O)Nc1cc(-c2cccc(F)c2)sc1C(=O)N[C@H]1CCCNC1 [AZD7762],0.164 ± 0.06
4,Nc1ccn([C@@H]2O[C@H](CO)[C@@H](O)C2(F)F)c(=O)n1 [gemcitabine],0.406 ± 0.096
5,CC1(C)CCC(c2ccc(Cl)cc2)=C(CN2CCN(c3ccc(C(=O)NS(=O)(=O)c4ccc(N[C@H](CCN5CCOCC5)CSc5ccccc5)c(S(=O)(=O)C(F)(F)F)c4)cc3)CC2)C1 [navitoclax],1.21 ± 0.26
6,CN(Cc1cnc2nc(N)nc(N)c2n1)c1ccc(C(=O)N[C@@H](CCC(=O)O)C(=O)O)cc1 [methotrexate],0.678 ± 0.16
7,C=CCn1c(=O)c2cnc(Nc3ccc(N4CCN(C)CC4)cc3)nc2n1-c1cccc(C(C)(C)O)n1 [adavosertib],0.745 ± 0.16
8,CC(C)(C(=O)NCC(F)(F)C(F)(F)F)C(=O)N[C@@H]1C(=O)Nc2ccccc2-c2ccccc21,1.29 ± 0.3
9,C[C@@H]1COCCN1c1cc(C2([S@](C)(=N)=O)CC2)nc(-c2cc[nH]c3nccc2-3)n1 [ceralasertib],0.849 ± 0.25
10,CCN1CCN(Cc2ccc(Nc3ncc(F)c(-c4cc(F)c5nc(C)n(C(C)C)c5c4)n3)nc2)CC1 [abemaciclib],1.43 ± 0.33

# Same assay, conditions: 100 µM
row,Structure (SMILES),CTG-3D luminescence at 96 h
1,COc1cccc2c1C(=O)c1c(O)c3c(c(O)c1C2=O)C[C@@](O)(C(=O)CO)C[C@@H]3O[C@H]1C[C@H](N)[C@H](O)[C@H](C)O1 [doxorubicin],-0.00667 ± 0.0021
2,O=C(O)C1(C(=O)O)CCC1.[NH2-].[NH2-].[Pt+2] [carboplatin],0.225 ± 0.099
3,NC(=O)Nc1cc(-c2cccc(F)c2)sc1C(=O)N[C@H]1CCCNC1 [AZD7762],0.00356 ± 0.0034
4,Nc1ccn([C@@H]2O[C@H](CO)[C@@H](O)C2(F)F)c(=O)n1 [gemcitabine],0.438 ± 0.083
5,CC1(C)CCC(c2ccc(Cl)cc2)=C(CN2CCN(c3ccc(C(=O)NS(=O)(=O)c4ccc(N[C@H](CCN5CCOCC5)CSc5ccccc5)c(S(=O)(=O)C(F)(F)F)c4)cc3)CC2)C1 [navitoclax],0.0085 ± 0.0066
6,CN(Cc1cnc2nc(N)nc(N)c2n1)c1ccc(C(=O)N[C@@H](CCC(=O)O)C(=O)O)cc1 [methotrexate],0.678 ± 0.15
7,C=CCn1c(=O)c2cnc(Nc3ccc(N4CCN(C)CC4)cc3)nc2n1-c1cccc(C(C)(C)O)n1 [adavosertib],0.376 ± 0.023
8,CC(C)(C(=O)NCC(F)(F)C(F)(F)F)C(=O)N[C@@H]1C(=O)Nc2ccccc2-c2ccccc21,1.03 ± 0.34
9,C[C@@H]1COCCN1c1cc(C2([S@](C)(=N)=O)CC2)nc(-c2cc[nH]c3nccc2-3)n1 [ceralasertib],0.6 ± 0.14
10,CCN1CCN(Cc2ccc(Nc3ncc(F)c(-c4cc(F)c5nc(C)n(C(C)C)c5c4)n3)nc2)CC1 [abemaciclib],0.00876 ± 0.0031

# Same assay, conditions: 625 fM
row,Structure (SMILES),CTG-3D luminescence at 96 h
1,COc1cccc2c1C(=O)c1c(O)c3c(c(O)c1C2=O)C[C@@](O)(C(=O)CO)C[C@@H]3O[C@H]1C[C@H](N)[C@H](O)[C@H](C)O1 [doxorubicin],1.71 ± 0.46
2,O=C(O)C1(C(=O)O)CCC1.[NH2-].[NH2-].[Pt+2] [carboplatin],1.47 ± 0.15
3,NC(=O)Nc1cc(-c2cccc(F)c2)sc1C(=O)N[C@H]1CCCNC1 [AZD7762],1.95 ± 0.13
4,Nc1ccn([C@@H]2O[C@H](CO)[C@@H](O)C2(F)F)c(=O)n1 [gemcitabine],1.65 ± 0.64
5,CC1(C)CCC(c2ccc(Cl)cc2)=C(CN2CCN(c3ccc(C(=O)NS(=O)(=O)c4ccc(N[C@H](CCN5CCOCC5)CSc5ccccc5)c(S(=O)(=O)C(F)(F)F)c4)cc3)CC2)C1 [navitoclax],1.6 ± 0.35
